# Results reported in US20150133495A1 (ViroCura Therapeutics, Inc., priority 2013, published 2015).
# Test system: HCV replicon (HCV1b sub-genomic, Huh-7 cells)
# Experiment: HCV replicon RNA replication assay (luciferase reporter)
# Type: cell-based, Hepatitis C virus (CON-1 genotype b)
# Conditions: Hepatitis C virus, Huh-7
# Method: All curve fitting was conducted using non-linear regression analyses from PRISM (version 4.0c, GraphPad Inc.) and the determination of Rmax and EC50 or IC50 parameters were obtained from sigmoidal dose-response phase (variable slope) equation.
# The replicon HCV1b is generated based on the wild-type sequence CON-1 genotype b (GenBank accession number AJ238799; Lohmann et al., Science 1999, 285: 110-113) and expressed the sub-genomic fragment HCV NS3-NS4A-NS4B-NS5A-NS5B. The replicon contain a hybrid HCV-IRES 5′UTR, a modified luciferase reporter gene expressed as a luciferase-Ubi-neomycin phosphotransferase gene fusion and an EMCV IRES NS3-NS5B subgenomic fragment with its 3′UTR. To generate cell lines harboring the replicon, Huh-7 cells are electroporated with purified in vitro HCV1b RNA transcripts and stable cell lines are selected in the presence of G418. Stable replicon cell lines are established as described in Science 1999, 285: 110-113. The amount of luciferase expressed by selected cells directly correlates with the level of HCV RNA replication, as measured by real-time PCR.
# Stable HCV replicon cells are maintained in Dulbecco's Modified Eagle Medium (DMEM) supplemented with 10% FBS and 0.5 mg/ml G418. During the assay, DMEM supplemented with 10% FBS, containing 0.5% DMSO and lacking G418 are used as assay medium. For the assay, cell stocks are trypsinized and diluted in assay medium to distribute 7,500 cells in 96-well plates. The plates are then incubated at 37° until compound addition. Serial dilutions of the test compound are prepared in 100% DMSO, before dilution in assay medium to a final DMSO concentration of 0.5% to generate a concentration dose response curves. A fixed volume from each well of the compound dilution plate is transferred to a corresponding well of the cell culture plate. The cell culture plate is incubated at 37° C. with 5% CO2 for 72 hours. Following the 72 h incubation period, the medium is aspirated from the 96-well assay plate and a volume of 50_l of lysis buffer 100 mM Tris acetate, 20 mM Mg acetate, 2 mM EGTA, 3.6 mM ATP, 1% Brij 58, 0.7%_-mercaptoethanol containing 45_g/ml luciferine (pH 7.9) is added to each well. The luciferase activity is determined using the luciferase substrate and the luminescence is detected on a MicroBeta JET 1450 LSC & Luminescence Counter (Perkin Elmer) instrument. The luminescence in each well of the culture plate is a measure of the amount of HCV RNA replication in the presence of various concentrations of inhibitor. The % inhibition is calculated for each inhibitor concentration and used to determine the concentration that results in 50% inhibition of HCV replication (EC50).
row,Structure (SMILES),EC50 [nM]
1,"Cc1onc(-c2ccccc2Cl)c1C(=O)O/N=C1/CCCCN1 [Compound 64, reference compound]",< 500
2,"Cc1noc(C)c1C(=O)O/N=C(\N)c1ccc(-c2csnn2)cc1 [Compound 62, reference compound]",500 to 1000

# Same assay, conditions: Hepatitis C virus, Huh-7, 72 h, read-out: EC50 (Range)
row,Structure (SMILES),EC50 [nM]
1,"Cc1onc(-c2ccccc2Cl)c1C(=O)O/N=C(\N)c1ccc2ccccc2n1 [Example 47, (Z)—N′-((3-(2-chlorophenyl)-5-methylisoxazole-4-carbonyl)oxy)quinoline-2-carboximidamide]",1000 to 10000
2,"COc1cccc(/C(N)=N/OC(=O)c2c(-c3ccccc3Cl)noc2C)c1 [Example 50, (Z)—N′-((3-(2-chlorophenyl)-5-methylisoxazole-4-carbonyl)oxy)-3-methoxybenzimidamide]",500 to 1000
3,"COc1ccccc1C/C(N)=N/OC(=O)c1c(-c2ccccc2Cl)noc1C(C)C [Example 15, (Z)—N′-((3-(2-chlorophenyl)-5-isopropylisoxazole-4-carbonyl)oxy)-2-(2-methoxyphenyl)acetimidamide]",< 500
4,"Cc1nc(/C(N)=N\OC(=O)c2c(-c3ccccc3)noc2C)cs1 [Example 30, (E)-2-methyl-N′-((5-methyl-3-phenylisoxazole-4-carbonyl)oxy)thiazole-4-carboximidamide]",1000 to 10000
5,"COc1ccc(C/C(N)=N/OC(=O)c2c(-c3ccccc3Cl)noc2C)cc1 [Example 23, (Z)—N′-((3-(2-chlorophenyl)-5-methylisoxazole-4-carbonyl)oxy)-2-(4-methoxyphenyl)acetimidamide]",500 to 1000
6,"Cc1ccc(/C(N)=N/OC(=O)c2cc(C)oc2C)cc1 [Example 25, (Z)—N′-((2,5-dimethylfuran-3-carbonyl)oxy)-4-methylbenzimidamide]",1000 to 10000
7,"COCc1onc(-c2ccccc2Cl)c1C(=O)O/N=C(\N)c1ccc2c(c1)OCO2 [Example 16, (Z)—N′-((3-(2-chlorophenyl)-5-(methoxymethyl)isoxazole-4-carbonyl)oxy)benzo[d][1,3]dioxole-5-carboximidamide]",500 to 1000
8,"N/C(=N\OC(=O)c1ccccc1C(F)(F)F)c1ccc2c(c1)OCO2 [Example 35, (Z)—N′-((2-(trifluoromethyl)benzoyl)oxy)benzo[d][1,3]dioxole-5-carboximidamide]",1000 to 10000
9,"N/C(=N\OC(=O)c1c(-c2ccccc2Cl)noc1-c1ccncc1)c1ccc2c(c1)OCO2 [Example 17, (Z)—N′-((3-(2-chlorophenyl)-5-(pyridin-4-yl)isoxazole-4-carbonyl)oxy)benzo[d][1,3]dioxole-5-carboximidamide]",1000 to 10000
10,COc1ccccc1C/C(N)=N/OC(=O)c1c(-c2ccccc2Cl)noc1C [Example 22],< 500
11,"COc1ccccc1/C(N)=N/OC(=O)c1c(C)cccc1C [Example 3, (Z)—N′-((2,6-dimethylbenzoyl)oxy)-2-methoxybenzimidamide]",< 500
12,"COc1ccc(C/C(N)=N/OC(=O)c2c(C)cccc2C)c(OC)c1 [Example 2, (Z)-2-(2,4-dimethoxyphenyl)-N′-((2,6-dimethylbenzoyl)oxy)acetimidamide]",< 500
13,"Cc1onc(-c2ccccc2Cl)c1C(=O)O/N=C(\N)CCc1ccc(Br)cc1 [Example 10, (Z)-3-(4-bromophenyl)-N′-((3-(2-chlorophenyl)-5-methylisoxazole-4-carbonyl)oxy)propanimidamide]",< 500
14,"N/C(=N\OC(=O)c1c(-c2ccccc2Cl)noc1Cc1ccccc1)c1ccc2c(c1)OCO2 [Example 13, (Z)—N′-((5-benzyl-3-(2-chlorophenyl)isoxazole-4-carbonyl)oxy)benzo[d][1,3]dioxole-5-carboximidamide]",< 500
15,"Cc1noc(C)c1C(=O)O/N=C(\N)c1ccc(Oc2ccccc2)cc1 [Example 31, (Z)—N′-((3,5-dimethylisoxazole-4-carbonyl)oxy)-4-phenoxybenzimidamide]",1000 to 10000
16,"Cc1cccc(-c2ccccc2)c1C(=O)O/N=C(\N)c1ccc(OCc2ccc(Cl)cc2)cc1 [Example 29, (Z)-4-((4-chlorobenzyl)oxy)-N′-((3-methyl-[1,1′-biphenyl]-2-carbonyl)oxy)benzimidamide]",< 500
